Reference: paper PMC9967085, “Properly Substituted Benzimidazoles as a New Promising Class of Nicotinate Phosphoribosyltransferase (NAPRT) Modulators” (Pharmaceuticals, 2023)
Where “and” joins values, the source holds several entries; their conditions need not be identical. Equal entries are not always repeated. Where two headings read alike, the source gives them in different places.

Columns and labels:
[1] = biological target: T1, Human recombinant NAPRT (Homo sapiens, UniProt Q6XQN6); experiment: HPLC-based NAPRT activity screening assay; type: biochemical
T1 construct: made in house
T1 sequence (Q6XQN6 1-538): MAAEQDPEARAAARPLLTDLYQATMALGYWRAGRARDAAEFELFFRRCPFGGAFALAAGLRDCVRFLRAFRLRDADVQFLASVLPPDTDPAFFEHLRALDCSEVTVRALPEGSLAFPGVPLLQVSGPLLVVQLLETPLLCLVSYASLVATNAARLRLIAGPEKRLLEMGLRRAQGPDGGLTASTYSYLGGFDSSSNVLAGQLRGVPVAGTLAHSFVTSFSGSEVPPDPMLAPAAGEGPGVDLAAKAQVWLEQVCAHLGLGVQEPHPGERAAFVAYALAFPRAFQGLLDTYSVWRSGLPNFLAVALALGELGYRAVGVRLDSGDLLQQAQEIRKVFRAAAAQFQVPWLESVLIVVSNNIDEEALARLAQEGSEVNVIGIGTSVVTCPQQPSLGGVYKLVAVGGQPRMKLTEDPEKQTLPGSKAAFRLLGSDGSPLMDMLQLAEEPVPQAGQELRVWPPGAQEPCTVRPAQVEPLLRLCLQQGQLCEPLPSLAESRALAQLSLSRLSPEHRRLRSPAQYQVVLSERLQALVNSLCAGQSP

[2] = biological target: T1, Human recombinant NAPRT; experiment: Kinetic analyses of NAPRT inhibition (HPLC assay, Lineweaver–Burk plot); type: biochemical
[3] = Kinetic solubility at pH 7.4; type: physicochemical; conditions: pH 7.4, aqueous buffer, kinetic from dmso stock
Experimental: (§1) The in silico ADME characterization has recently been reported for NAPRT inhibitors 1, 15 and 16, belonging to different chemotypes, and the results indicated promising pharmacokinetic features for the studied compounds [17]. With the aim to preliminarily shed light on the pharmacokinetics of this series of compounds, 18 was evaluated for its in vitro ADME profile. Kinetic solubility at pH 7.4, plasma protein binding from human and mouse species determined by using equilibrium dialysis, intrinsic hepatic clearance determined in human and mouse liver microsomes, and permeability studies in MDCKII (Madin–Darby canine kidney cells, a cell strain derived from the distal tubule or collecting duct of the nephron) and MDCKII-MDR1 (MDCK II cells overexpressing the multidrug resistance protein 1, MDR1) cell lines were performed according to previously reported procedures. Both cell lines were originally obtained from American Type Culture Collection (ATCC) and have been cultured and amplified with respect to permeability assessment at the test site.

[4] = Plasma protein binding by equilibrium dialysis, human; type: in vitro ADME; conditions: performed at 0.5 μM, read-out: Protein Binding, Human plasma (FU)
Experimental: as §1

[5] = Plasma protein binding by equilibrium dialysis, mouse; type: in vitro ADME; conditions: performed at 0.5 μM, read-out: Protein Binding, Mouse plasma (FU)
Experimental: as §1

[6] = Hepatic intrinsic clearance in human liver microsomes; type: in vitro ADME
Experimental: as §1

[7] = Hepatic intrinsic clearance in mouse liver microsomes; type: in vitro ADME
Experimental: as §1

[8] = Permeability in MDCKII cells; type: in vitro ADME, canine; conditions: dog, MDCK
Experimental: as §1

[9] = system: MDCKII-MDR1; experiment: Permeability in MDCKII-MDR1 cells; type: in vitro ADME, canine; conditions: from efflux ratio in MDCKII-MDR1
Experimental: as §1

[10] = system: MDR1; experiment: Permeability in MDCKII-MDR1 cells; type: in vitro ADME, canine; conditions: dog, MDCK-MDR1
Experimental: as §1

Effect on NAPRT catalytic activity (in words) [1]: inhibit NAPRT activity | inhibition at 1000 µM ([1]; 1 mM compound, 0.2 mM NA, 0.4 mM PRPP, read-out: % Inhibition): 46.1 ± 8.1% | Inhibition mechanism towards NA [2]: noncompetitive | Inhibition mechanism towards PRPP [2]: mixed | Ki ([2]; NA 25 µM to 100 µM at 0.4 mM PRPP, noncompetitive, read-out: Ki towards NA): 338 µM | Ki ([2]; PRPP 25 µM to 100 µM at 0.4 mM NA, mixed, read-out: Ki towards PRPP): 134 µM | solubility kinetic [3]: 312 µM and 130 µg/mL | fraction unbound at 0.5 μM [4]: 0.146 | fraction unbound at 0.5 μM [5]: > 0.5 | Human Cli ([6]; human liver microsomes): <9.92 µL/min/mg protein | WSM in vivo prediction ([6]; human, well-stirred model): 6.83 mL/min/kg | Mouse Cli ([7]; mouse liver microsomes): 120 µL/min/mg protein | WSM in vivo prediction ([7]; mouse, well-stirred model): 26.9 mL/min/kg | Papp A→B ([8]; apical to basolateral): 3.83 ×10⁻⁶ cm/s | Papp B→A ([8]; basolateral to apical): 6.59 ×10⁻⁶ cm/s | efflux ratio ([8]; read-out: Efflux Ratio MDCKII (B-A/A-B)): 1.7 | P-gp substrate status [9]: P-gp substrate | Papp A→B ([10]; apical to basolateral): 0.339 ×10⁻⁶ cm/s | Papp B→A ([10]; basolateral to apical): 17.4 ×10⁻⁶ cm/s | efflux ratio ([10]; read-out: Efflux Ratio MDCKII-MDR1 (B-A/A-B)): 51.3
Compound: CC(=O)Nc1cccc(CNc2ccc3c(c2)nc(C)n3C)c1 [Compound 18, N-(3-(((1,2-dimethyl-1H-benzo[d]imidazol-5-yl)amino)methyl)phenyl)acetamide]
-Fold Stimulation (not active class) ([1]; 1 mM compound, 0.2 mM NA, 0.4 mM PRPP): - (Not active, it is referred to compounds showing less than 10% inhibition or less than 1.10-fold stimulation)
